ChEMBL document CHEMBL1133524 (J Med Chem, 2000)
In brackets after ≈: the same amount, converted by molar mass. Activity calls are given as the source filed them. The rule behind the calls is not given here.

Key:
A549 = format: functional, Homo sapiens
Description: Tested in vitro for cytotoxic activity against lung carcinoma (A-549) cell line

PC-3 [1] = experiment: Tested in vitro for cytotoxic activity against prostate cancer (PC3) cell line; format: functional, Homo sapiens
HCT-8 [2] = experiment: Tested in vitro for cytotoxic activity against ileocecal carcinoma (HCT-8) cell line; format: functional, Homo sapiens
KB [3] = experiment: Tested in vitro for cytotoxic activity against P-glycoprotein-expressing epidermoid carcinoma of the nasopharynx(KB-VIN) cell line; format: functional, Homo sapiens
SK-MEL-2 [4] = experiment: Tested in vitro for cytotoxic activity against melanoma (SKMEL-2) cell line; format: functional, Homo sapiens
U-87 MG [5] = experiment: Tested in vitro for cytotoxic activity against glioblastoma (U-87-MG) cell line; NA means Not active; format: functional, cell-based; details: Homo sapiens; U-87MG ATCC
1A9 [6] = experiment: Tested in vitro for cytotoxic activity against Human ovarian cancer (IA9) cell line; format: functional
HOS [7] = experiment: Tested in vitro for cytotoxic activity against bone(HOS) cell line; format: functional, Homo sapiens
KB [8] = experiment: Tested in vitro for cytotoxic activity against epidermoid carcinoma of the nasopharynx(KB) cell line; NA means Not active; format: functional, cell-based; details: Homo sapiens
MCF7 = experiment: Tested in vitro for cytotoxic activity against breast cancer (MCF-7) cell line; format: functional, Homo sapiens
1A9 [9] = experiment: Tested in vitro for cytotoxic activity against Human ovarian cancer (IA9) cell line; NA means Not active; format: functional, cell-based
HOS [10] = experiment: Tested in vitro for cytotoxic activity against bone(HOS) cell line; NA means Not active; format: functional, cell-based; details: Homo sapiens
HCT-8 [11] = experiment: Tested in vitro for cytotoxic activity against ileocecal carcinoma (HCT-8) cell line; NA means Not active; format: functional, cell-based; details: Homo sapiens
U-87 MG [12] = experiment: Tested in vitro for cytotoxic activity against glioblastoma (U-87-MG) cell line; format: functional, Homo sapiens, U-87MG ATCC
KB [13] = experiment: Tested in vitro for cytotoxic activity against epidermoid carcinoma of the nasopharynx(KB) cell line; format: functional, Homo sapiens
Tubulin = Tubulin (Bos taurus, UniProt Q6B856+Q862L2+Q862F3); experiment: Inhibition of bovine tubulin polymerization; format: functional
SK-MEL-2 [14] = experiment: Tested in vitro for cytotoxic activity against melanoma (SKMEL-2) cell line; NA means Not active; format: functional, cell-based; details: Homo sapiens
1A9 [15] = experiment: Tested in vitro for cytotoxic activity against human ovarian cancer (IA9)cell line; format: functional
PC-3 [16] = experiment: Tested in vitro for cytotoxic activity against prostate cancer (PC3) cell line; NA means Not active; format: functional, cell-based; details: Homo sapiens
Tubulin (Bos taurus) = Tubulin (Bos taurus) (UniProt Q6B856+Q862L2+Q862F3); experiment: Tested for inhibition of radioligand colchicine binding to bovine tubulin; format: protein assay; details: concentration not given here
U-87 MG [17] = experiment: Tested in vitro for cytotoxic activity against glioblastoma (U-87-MG) cell line;NA means not active.; format: functional, cell-based; details: Homo sapiens; U-87MG ATCC

Row | Compound | ED50 (A549) [µg/mL] | ED50 (PC-3 [1]) [µg/mL] | ED50 (HCT-8 [2]) [µg/mL] | ED50 (KB [3]) [µg/mL] | ED50 (SK-MEL-2 [4]) [µg/mL] | ED50 (U-87 MG [5]) | ED50 (1A9 [6]) [µg/mL] | ED50 (HOS [7]) [µg/mL] | ED50 (MCF7) [µg/mL] | ED50 (U-87 MG [12]) [µg/mL] | ED50 (KB [13]) [µg/mL] | IC50 (Tubulin) [µM] | further results
1 | COc1cccc(-c2nc(O)c3ccccc3n2)c1 | > 20 | > 20 | > 20 | > 20 | > 20 | inactive | > 20 | > 20 | 26 (≈ 103 µM) | – | – | – | ED50 (KB [8]): inactive
2 | COc1cc(OC)cc(-c2nc(O)c3ccccc3n2)c1 | > 20 | > 20 | – | > 20 | > 20 | inactive | – | – | > 20 | – | – | – | ED50 (1A9 [9]): inactive; ED50 (HOS [10]): inactive; ED50 (KB [8]): inactive; ED50 (HCT-8 [11]): inactive
3 | COc1cc(OC)cc(C2NC(=O)c3ccccc3N2)c1 (centres undefined) | 5 (≈ 17.6 µM) | > 20 | 3 (≈ 10.6 µM) | 1.6 (≈ 5.63 µM) | 4.4 (≈ 15.5 µM) | – | – | > 20 | > 20 | > 20 | 4.7 (≈ 16.5 µM) | 12 | –
4 | COc1cccc(-c2nc(O)c3cc(N(C)C)ccc3n2)c1 | 14 (≈ 47.4 µM) | 15 (≈ 50.8 µM) | – | 0.42 (≈ 1.42 µM) | 19 (≈ 64.3 µM) | – | 0.49 (≈ 1.66 µM) | > 20 | 0.85 (≈ 2.88 µM) | > 20 | 10 (≈ 33.9 µM) | – | –
5 | COc1ccc(OC)c(C2NC(=O)c3ccccc3N2)c1 (centres undefined) | > 20 | > 20 | > 20 | 8.4 (≈ 29.5 µM) | > 20 | – | 10 (≈ 35.2 µM) | > 20 | > 20 | > 20 | > 20 | 32 | Inhibition (KB [13]): 40%; Inhibition (HOS [7]): 40%
6 | COc1cccc(-c2nc(O)c3cc(N4CCC(C)CC4)ccc3n2)c1 | 6 (≈ 17.2 µM) | – | 4 (≈ 11.4 µM) | 2.5 (≈ 7.15 µM) | 7.5 (≈ 21.5 µM) | – | 0.8 (≈ 2.29 µM) | – | 10 (≈ 28.6 µM) | – | – | – | –
7 | COc1ccc(C2NC(=O)c3ccccc3N2)c(OC)c1 (centres undefined) | > 20 | > 20 | > 20 | 7.6 (≈ 26.7 µM) | > 20 | inactive | – | > 20 | > 20 | – | > 20 | > 40 | Inhibition (KB [13]): 43%; Inhibition (HOS [7]): 40%
8 | COc1cccc(-c2nc(O)c3cc(N4CCOCC4)ccc3n2)c1 | – | – | – | 3.7 (≈ 11 µM) | 4.8 (≈ 14.2 µM) | – | 3.8 (≈ 11.3 µM) | – | 4.5 (≈ 13.3 µM) | 20 (≈ 59.3 µM) | 8.2 (≈ 24.3 µM) | – | –
9 | COc1ccccc1C1NC(=O)c2ccccc2N1 (centres undefined) | > 20 | > 20 | > 20 | 10.2 (≈ 40.1 µM) | < 20 | inactive | – | > 20 | > 20 | – | > 20 | > 40 | Inhibition (PC-3 [1]): 30%; Inhibition (KB [13]): 32%
10 | COc1ccc(C2NC(=O)c3ccccc3N2)cc1 (centres undefined) | > 20 | > 20 | > 20 | > 20 | > 20 | inactive | 20 (≈ 78.7 µM) | > 20 | > 20 | – | > 20 | > 40 | Inhibition (PC-3 [1]): 14%; Inhibition (KB [3]): 39%
11 | COc1ccccc1-c1nc(O)c2ccccc2n1 | > 20 | – | – | > 20 | – | inactive | – | > 20 | > 20 | – | > 20 | – | ED50 (SK-MEL-2 [14]): inactive; ED50 (1A9 [15]): > 20 µg/mL; ED50 (HCT-8 [11]): inactive; ED50 (PC-3 [16]): inactive
12 | COc1ccc(-c2nc(O)c3ccccc3n2)cc1OC | > 20 | > 20 | > 20 | > 20 | > 20 | inactive | > 20 | > 20 | > 20 | – | > 20 | – | –
13 | COc1cccc(-c2nc(O)c3cc(N4CCCCC4)ccc3n2)c1 | 2.8 (≈ 8.35 µM) | 10 (≈ 29.8 µM) | 4.3 (≈ 12.8 µM) | 0.6 (≈ 1.79 µM) | 4.5 (≈ 13.4 µM) | – | 0.9 (≈ 2.68 µM) | – | 8.5 (≈ 25.3 µM) | 9 (≈ 26.8 µM) | 10 (≈ 29.8 µM) | – | –
14 | COc1cccc(-c2nc(O)c3cc(F)ccc3n2)c1 | – | 20 (≈ 74 µM) | > 20 | 18 (≈ 66.6 µM) | > 20 | – | – | – | > 20 | > 20 | > 20 | – | ED50 (1A9 [9]): inactive; ED50 (HOS [10]): inactive
15 | COc1cccc(-c2nc(O)c3cc(OC)c(OC)cc3n2)c1 | > 20 | 15 (≈ 48 µM) | > 20 | – | 18 (≈ 57.6 µM) | – | – | > 20 | 12 (≈ 38.4 µM) | > 20 | – | – | –
16 | COc1cccc(C2NC(=O)c3cc(Cl)ccc3N2)c1 (centres undefined) | 0.6 (≈ 2.08 µM) | 2.5 (≈ 8.66 µM) | 0.48 (≈ 1.66 µM) | 0.42 (≈ 1.45 µM) | < 2.5 | – | 0.27 (≈ 0.935 µM) | 20 (≈ 69.3 µM) | 16 (≈ 55.4 µM) | > 20 | 0.95 (≈ 3.29 µM) | 1.5 | –
17 | COc1cccc(-c2nc(O)c3cc(Cl)ccc3n2)c1 | 3.2 (≈ 11.2 µM) | 4.5 (≈ 15.7 µM) | 6 (≈ 20.9 µM) | 6.5 (≈ 22.7 µM) | 4.8 (≈ 16.7 µM) | – | > 20 | 17 (≈ 59.3 µM) | – | 10 (≈ 34.9 µM) | – | – | –
18 | COc1cccc(-c2nc(O)c3ccccc3n2)c1OC | > 20 | 20 (≈ 70.8 µM) | – | > 20 | – | inactive | – | – | 20 (≈ 70.8 µM) | – | – | – | ED50 (1A9 [9]): inactive; ED50 (SK-MEL-2 [14]): inactive; ED50 (HOS [10]): inactive; ED50 (KB [8]): inactive; ED50 (HCT-8 [11]): inactive
19 | COc1ccc(OC)c(-c2nc(O)c3ccccc3n2)c1 | > 20 | > 20 | > 20 | > 20 | > 20 | inactive | > 20 | > 20 | > 20 | – | > 20 | – | –
20 | COc1cccc(C2NC(=O)c3ccccc3N2)c1 (centres undefined) | 3 (≈ 11.8 µM) | > 20 | 1.5 (≈ 5.9 µM) | 1.2 (≈ 4.72 µM) | > 20 | – | 1 (≈ 3.93 µM) | > 20 | > 20 | > 20 | 3 (≈ 11.8 µM) | 5.6 | –
21 | COc1cccc(-c2nc(O)c3cc(N4CCCC4)ccc3n2)c1 | 0.5 (≈ 1.56 µM) | 15 (≈ 46.7 µM) | 0.06 (≈ 0.187 µM) | 0.1 (≈ 0.311 µM) | 0.09 (≈ 0.28 µM) | – | 0.09 (≈ 0.28 µM) | 7 (≈ 21.8 µM) | 0.22 (≈ 0.685 µM) | – | 0.23 (≈ 0.716 µM) | – | inhibition (Tubulin (Bos taurus)): 24%
22 | COc1ccc(C2NC(=O)c3ccccc3N2)cc1OC (centres undefined) | > 20 | > 20 | > 20 | 16 (≈ 56.3 µM) | > 20 | inactive | – | > 20 | 20 (≈ 70.3 µM) | – | > 20 | > 40 | Inhibition (PC-3 [1]): 30%; Inhibition (KB [13]): 28%; Inhibition (HOS [7]): 24%
23 | COc1cccc(-c2nc(O)c3cc4c(cc3n2)OCO4)c1 | > 20 | > 20 | – | > 20 | > 20 | inactive | > 20 | > 20 | > 20 | – | > 20 | – | ED50 (HCT-8 [11]): inactive
24 | COc1cccc(C2NC(=O)c3ccccc3N2)c1OC (centres undefined) | > 20 | > 20 | > 20 | 8.6 (≈ 30.2 µM) | < 20 | – | – | > 20 | > 20 | – | > 20 | > 40 | Inhibition (PC-3 [1]): 20%; Inhibition (KB [13]): 41%; ED50 (U-87 MG [17]): inactive
25 | COc1ccc(-c2nc(O)c3ccccc3n2)c(OC)c1 | > 20 | > 20 | > 20 | > 20 | > 20 | – | – | > 20 | > 20 | > 20 | > 20 | – | ED50 (1A9 [9]): inactive
26 | COc1cccc(-c2cc(O)c3cc(N4CCCC4)ccc3n2)c1 | – | – | – | – | – | – | – | – | – | – | – | 0.32 | –
27 | COc1cccc(-c2nc(O)c3cc(OC)ccc3n2)c1 | – | > 20 | – | 3.5 (≈ 12.4 µM) | > 20 | – | 3.4 (≈ 12 µM) | > 20 | 8 (≈ 28.3 µM) | > 20 | – | – | –
28 | COc1ccc(-c2nc(O)c3ccccc3n2)cc1 | > 20 | > 20 | > 20 | > 20 | > 20 | – | > 20 | > 20 | > 20 | – | > 20 | – | ED50 (U-87 MG [17]): inactive
